Results on one compound are retold here after patent US10753935B2, “Prognostic method and kits useful in said method” (Zelda Therapeutics Operations Pty Ltd, priority 2016, dated 2020).

In one assay the test system is HER2-HER2 dimers. The assay can be described thus: In situ proximity ligation assay of HER2-HER2 dimers in HCC1954 cells. It counts as cell-based, human. The note with it: THC treatment. Here is the method:
FIG. 6. HER2-HER2 dimer expression in HCC1954 cells. Representative images of the PLA experiments, in response to the indicated treatments.
(§1) Cells were grown on glass coverslips and fixed in 4% paraformaldehyde, washed with PBS containing 20 mM glycine, permeabilized with the same buffer containing 0.05% Triton® X-100, and washed successively with PBS. HER2-CB2R heteromers were detected using the Duolink in situ Probemarker kit (Olink, Bioscience, Uppsala, Sweden). After 1 h of incubation at 37° C. with the blocking solution in a preheated humidity chamber, cells were incubated overnight in the antibody dilution medium with a mixture of equal amounts of rabbit anti-CB2 antibody (1:50, Cayman Chemical, Ann Arbor, Mich.) directly linked to a plus PLA probe, and rabbit anti-HER2 antibody (1:50, Santa Cruz Biotechnology, Santa Cruz, Calif., US) directly linked to a minus PLA probe. […] Amplification was done with the Duolink II detection reagents red kit, which contains fluorescence nucleotides. […] PLA requires that both receptors be close enough to allow the two different antibody-DNA probes to be able to ligate (<17 nm) ((Soderberg et al., (2008), Methods., 45: 227-232; Trifilieff et al., (2011), BioTechniques, 51: 111-118). If the receptors are within sufficient proximity, a punctate fluorescent signal can be detected by confocal microscopy.

The target in assay [1] is T1, HER2-CB2 heteromers (Homo sapiens, UniProt P34972). The experiment in a line: Co-immunoprecipitation of HER2 and CB2-HA in BT474 cells. It counts as cell-based. Conditions: BT474 cells transfected with CB2-HA; 3 μM THC for 4 h. The protocol: (§2) FIG. 3. Western blot analysis of HER2 and CB2 in the indicated cell lines. Cells were transfected with a CB2-HA encoding plasmid and treated with THC for 4 h. HER2 was then immune-precipitated with an anti-HER2 antibody, and blots were developed with anti-HA antibodies.
(§3) HCC1954 and BT474 cells were transiently transfected with pcDNA3-HA-hCB2 or the corresponding empty vector (pcDNA3), using Fugene HD Transfection Reagent (Promega, Madison, Wis.). 48 h after transfection, cells were treated with 3 μM THC or the corresponding vehicle (DMSO) for 4 h, and lysed using a specific buffer for co-immunoprecipitation (40 mM Hepes pH 7.5, 120 mM NaCl, 1 mM EDTA, 10 mM sodium pyrophosphate, 10 mM sodium glycerophosphate, 50 mM sodium fluoride, 0.5 mM sodium orthovanadate, 0.3% CHAPS and supplemented with 1 mM benzamidine and 0.1 mM PMSF in fresh). Cell lysates (1 mg) were immunoprecipitated using 5 μg of anti-ErbB2 antibody (Neu C-18, Santa Cruz Biotechnology, Santa Cruz, Calif., US) covalently coupled to 5 μL protein G-sepharose. After immunoprecipitation, proteins were separated by SDS-10% polyacrylamide reducing gels and transferred to PVDF membranes. […] Bound antibodies were detected with a donkey anti-rabbit immunoglobulin G (IgG) peroxidase-labeled antibody (GE Healthcare, UK). […]

In assay [2] the target is T1, HER2-CB2 heteromers. The experiment in a line: Co-immunoprecipitation of HER2 and CB2-HA in HCC1954 cells. It counts as cell-based. Details: HER2-CB2 heteromer expression in HCC1954 cells; endogenous in cells; host or cells: HCC1954. The note with it: HCC1954 cells transfected with CB2-HA; 3 μM THC for 4 h. The protocol:
as §2, §3

Assay [3] relates to HER2. The experiment in a line: Western blot of HER2 in HCC1954 cells. It counts as cell-based, human. The note with it: THC treatment. The protocol: FIG. 5. Protein expression in HCC1954 cells. Protein expression analysis by Western blot of total and phosphorylated (i.e., activated) HER2 in response to THC.
(§4) We have now confirmed this observation by Western blot in HCC1954 cells (FIG. 5).
HCC1954 cells were treated with RIPA buffer (50 mM Tris, 150 mM NaCl, 1% NP-40, 0.5% sodium deoxycholate, and 0.1% sodium dodecyl sulfate), containing a cocktail of protease inhibitors (pepstatin, leupeptin, aprotinin, quimostatin, antipain, and phenylmethylsulfonyl fluoride) and phosphatase inhibitors (Na3VO4 and NaF; Sigma Chemical Co., St. Louis, Mo.). Proteins separated by sodium dodecyl sulfate-10% polyacrylamide reducing gels were transferred to polyvinylidene difluoride membranes (Bio-Rad Laboratories, Hercules, Calif.). After blocking with 5% skim milk and 1% bovine serum albumin, membranes were incubated with the anti-ErbB2 antiserum (Santa Cruz Biotechnology, Santa Cruz, Calif.) diluted 1:500 for 3 h at room temperature. […] A chemiluminescence detection system (Amersham Pharmacia Biotech, Piscataway, N.J.) was used to reveal peroxidase. Controls were carried out with an anti-actin monoclonal antibody (MAb; Boehringer Mannheim, Indianapolis, Ind.) diluted 1:5,000 followed by an anti-mouse IgG peroxidase-labeled antibody diluted 1:4,000 (Zymed).

Assay [4] concerns HER2. The experiment in a line: HER2 degradation in BT474 cells. It counts as cell-based, human. Conditions: THC treatment, previously observed.
From the text: (§5) As discussed in Example 1, we observed these effects using Proximity Ligation assays (PLAs) and Bioluminescence Resonance Energy Transfer (BRET) assays.
as §4

The target of assay [5] is T1, HER2-CB2 heteromers. The experiment in a line: PLA and BRET assays of HER2-CB2 heteromers in BT474 cells. Conditions: THC at concentrations that produce anti-tumor responses, previously reported by the applicants. It counts as cell-based. Here is the method: as §5, §1
In assay [6] the target is T1, HER2-CB2 heteromers. The assay can be described thus: In situ proximity ligation assay of HER2-CB2 heteromers in HCC1954 cells. Set-up: HER2-CB2 heteromer expression in HCC1954 cells; endogenous in cells; host or cells: HCC1954. The note with it: THC treatment. It counts as cell-based.
Procedure: HER2-CB2 heteromer expression in HCC1954 cells. Representative images of the PLA experiments, in response to the indicated treatments.
Cells were grown on glass coverslips and fixed in 4% paraformaldehyde, washed with PBS containing 20 mM glycine, permeabilized with the same buffer containing 0.05% Triton® X-100, and washed successively with PBS. HER2-CB2R heteromers were detected using the Duolink in situ Probemarker kit (Olink, Bioscience, Uppsala, Sweden). After 1 h of incubation at 37° C. with the blocking solution in a preheated humidity chamber, cells were incubated overnight in the antibody dilution medium with a mixture of equal amounts of rabbit anti-CB2 antibody (1:50, Cayman Chemical, Ann Arbor, Mich.) directly linked to a plus PLA probe, and rabbit anti-HER2 antibody (1:50, Santa Cruz Biotechnology, Santa Cruz, Calif., US) directly linked to a minus PLA probe. Cells were washed with wash buffer A at room temperature and incubated in a preheated humidity chamber for 30 min at 37° C. with the ligation solution (Duolink® II ligation stock, 1:5, and Duolink II ligase, 1:40) to induce annealing and ligation of the two DNA probes. Amplification was done with the Duolink II detection reagents red kit, which contains fluorescence nucleotides. After exhaustive washing at room temperature with wash buffer B, cells were mounted using mounting medium with DAPI. […]

T1 sequence (P34972 whole entry, one chain of several): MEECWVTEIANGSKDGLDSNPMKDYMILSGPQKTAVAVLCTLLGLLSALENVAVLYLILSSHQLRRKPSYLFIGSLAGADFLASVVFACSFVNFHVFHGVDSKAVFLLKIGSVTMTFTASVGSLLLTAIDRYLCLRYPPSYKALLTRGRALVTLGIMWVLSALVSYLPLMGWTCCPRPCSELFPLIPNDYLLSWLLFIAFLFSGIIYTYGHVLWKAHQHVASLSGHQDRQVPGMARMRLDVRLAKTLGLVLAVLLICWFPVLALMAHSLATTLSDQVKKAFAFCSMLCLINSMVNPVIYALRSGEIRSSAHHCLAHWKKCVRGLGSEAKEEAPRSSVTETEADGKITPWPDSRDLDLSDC

As to `CCCCCc1cc(O)c2c(c1)OC(C)(C)[C@@H]1CCC(C)=C[C@@H]21` [THC, Δ^9-tetrahydrocannabinol], the “effect on HER2-HER2 dimers (PLA)” value in the assay on HER2-HER2 dimers was “disrupts not only HER2-CB2 but also HER2-HER2 dimers”. In addition, the “effect on HER2-CB2 heteromers (co-IP)” value on HER2-CB2 heteromers [1] and at HER2-CB2 heteromers [2] was “disrupts HER2-CB2 heteromers” throughout. Further, the “effect on HER2 protein level (Western blot)” value with HER2 [3] is “degradation of HER2”. The “effect on HER2 protein level” value with HER2 [4] is recorded as “degradation of HER2”. In addition, the “effect on HER2-CB2 heteromers (PLA, BRET)” value at HER2-CB2 heteromers [5] is “disrupts HER2-CB2 heteromers”. The “effect on HER2-CB2 heteromers (PLA)” value on HER2-CB2 heteromers [6] is “breaks the heteromers by acting on CB2”.
